# Publication PMC4690813 (Journal of medicinal chemistry, 2015)
# Columns and labels:
# [1] = system: panel of serine hydrolases; conditions: gel-based competitive ABPP; FAAH only detected off-target; ref [12], [13]; cited from earlier work
# recombinant human DAGLα = target: T1, recombinant human DAGLα (Homo sapiens, UniProt Q9Y4D2); assay: colorimetric DAGLα activity assay; format: biochemical; conditions: for LipE: LipE = pIC50 - cLogP; for fold drop in potency/activity: 2 compared to 1, 109 compared to 1, 122 compared to oleoyl analogue 121
# T1 sequence (Q9Y4D2 1-1042): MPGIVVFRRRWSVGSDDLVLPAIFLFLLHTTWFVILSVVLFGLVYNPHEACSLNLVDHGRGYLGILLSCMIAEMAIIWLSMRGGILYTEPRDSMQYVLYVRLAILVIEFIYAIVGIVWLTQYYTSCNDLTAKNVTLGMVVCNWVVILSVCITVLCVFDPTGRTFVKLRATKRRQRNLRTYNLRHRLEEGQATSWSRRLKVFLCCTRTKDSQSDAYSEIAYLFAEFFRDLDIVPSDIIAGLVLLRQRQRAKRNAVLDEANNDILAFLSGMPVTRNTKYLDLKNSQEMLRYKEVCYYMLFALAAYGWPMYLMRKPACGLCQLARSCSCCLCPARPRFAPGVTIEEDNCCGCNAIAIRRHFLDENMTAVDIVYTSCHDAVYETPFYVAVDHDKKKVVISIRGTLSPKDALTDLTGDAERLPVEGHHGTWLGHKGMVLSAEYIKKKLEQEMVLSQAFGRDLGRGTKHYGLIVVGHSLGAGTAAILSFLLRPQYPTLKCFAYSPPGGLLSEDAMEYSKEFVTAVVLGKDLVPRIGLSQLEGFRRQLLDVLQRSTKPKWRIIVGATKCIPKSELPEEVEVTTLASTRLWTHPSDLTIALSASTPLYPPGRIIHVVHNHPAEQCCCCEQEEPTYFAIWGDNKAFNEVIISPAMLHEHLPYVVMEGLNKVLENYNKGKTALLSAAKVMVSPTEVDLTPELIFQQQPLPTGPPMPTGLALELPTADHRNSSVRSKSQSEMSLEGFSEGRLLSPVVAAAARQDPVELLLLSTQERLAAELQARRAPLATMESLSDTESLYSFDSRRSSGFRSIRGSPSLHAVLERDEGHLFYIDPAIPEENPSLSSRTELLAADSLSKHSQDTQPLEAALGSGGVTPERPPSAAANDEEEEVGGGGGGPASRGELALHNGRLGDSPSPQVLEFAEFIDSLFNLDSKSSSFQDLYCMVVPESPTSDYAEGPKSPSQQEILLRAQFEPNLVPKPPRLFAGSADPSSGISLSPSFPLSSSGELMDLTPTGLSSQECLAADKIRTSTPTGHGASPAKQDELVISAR
# FAAH = FAAH activity reported in the literature; format: biochemical; conditions: DAGLα pIC50 versus previously reported FAAH pKi
SMILES,LipE (recombinant human DAGLα),further results
"O=C(CCCCCc1ccccc1)c1nc2ncccc2o1 [Compound 1, 1-(Oxazolo[4,5-b]pyridin-2-yl)-6-phenylhexan-1-one]",3.35,selectivity over a panel of serine hydrolases [1]: highly selective
O=C(CCCCCCc1ccccc1)c1nc(C(=O)C(F)(F)F)co1 [Compound 45],,selectivity over FAAH (FAAH): selective over FAAH
"O=C(CCc1ccccc1)c1nc2ncccc2o1 [Compound 106, 1-(Oxazolo[4,5-b]pyridin-2-yl)-3-phenylpropan-1-one]",2.11,
"O=C(CCCc1ccccc1)c1nc2ncccc2o1 [Compound 107, 1-(Oxazolo[4,5-b]pyridin-2-yl)-4-phenylbutan-1-one]",2.64,
"O=C(CCCCc1ccccc1)c1nc2ncccc2o1 [Compound 108, 1-(Oxazolo[4,5-b]pyridin-2-yl)-5-phenylpentan-1-one]",3.15,
"O=C(CCCCCCc1ccccc1)c1nc2ncccc2o1 [Compound 109, 1-(Oxazolo[4,5-b]pyridin-2-yl)-7-phenylheptan-1-one]",1.68,fold drop in potency/activity (recombinant human DAGLα): > 10 fold
"O=C(CCCCCCCc1ccccc1)c1nc2ncccc2o1 [Compound 110, 1-(Oxazolo[4,5-b]pyridin-2-yl)-8-phenyloctan-1-one]",2.20,
O=C(CCCCCCCCc1ccccc1)c1nc2ncccc2o1 [Compound 111],2.78,
CCCCC/C=C\C/C=C\C/C=C\C/C=C\CCCC(=O)c1nc2ncccc2o1 [Compound 122],,fold drop in potency/activity (recombinant human DAGLα): ~100 fold
CCCCCCCC/C=C\CCCCCCCC(=O)c1nc2ccccc2[nH]1 [Compound 123],,selectivity over FAAH (FAAH): selective over FAAH
"O=C(CCCCCCc1ccccc1)c1ncc(-c2ccccn2)o1 [OL-135, reference compound]",,DAGLα inhibitor activity (in words) (recombinant human DAGLα): not active
